Test results taken from US20070196337A1, “RECOMBINANT PERFORIN, EXPRESSION AND USES THEREOF” (priority 2004, published 2007).

B1: V183G: mouse perforin with V183G substitution (protein, UniProt P10820 21-554, looked up, variant V183G)
Perforin-1: PCYTATRSECKQKHKFVPGVWMAGEGMDVTTLRRSGSFPVNTQRFLRPDRTCTLCKNSLMRDATQRLPVAITHWRPHSSHCQRNVAAAKVHSTEGVAREAAANINNDWRVGLDVNPRPEANMRASVAGSHSKVANFAAEKTYQDQYNFNSDTVECRMYSFRLGQKPPLHLDFKKALRALPRNFNSSTEHAYHRLISSYGTHFITAVDLGGRISVLTALRTCQLTLNGLTADEVGDCLNVEAQVSIGAQASVSSEYKACEEKKKQHKMATSFHQTYRERHVEVLGGPLDSTHDLLFGNQATPEQFSTWTASLPSNPGLVDYSLEPLHTLLEEQNPKREALRQAISHYIMSRARWQNCSRPCRSGQHKSSHDSCQCECQDSKVTNQDCCPRQRGLAHLVVSNFRAEHLWGDYTTATDAYLKVFFGGQEFRTGVVWNNNNPRWTDKMDFENVLLSTGGPLRVQVWDADYGWDDDLLGSCDRSPHSGFHEVTCELNHGRVKFSYHAKCLPHLTGGTCLEYAPQGLLGDPPGNRSGAVW

How the values were obtained:
Assay type in all cases: cell-based
[1] = system: Sheep red blood cells (sRBC); assay: Erythrocyte lysis assay with RBL granule extracts, haemoglobin release
Method: Sheep red blood cells (sRBC) were washed three times then resuspended at 10^8/mL in 150 mM NaCl. For the assay, 50 ul of freeze/thawed granule extract [fraction #8 (see above)] was incubated with 20 μl of the sRBC suspension in the presence of 2 mM CaCl2 at 37° C. for 30 minutes in v-bottom 96 well plates. For maximal haemoglobin release, H2O was used to lyse the red blood cells. Plates were centrifuged at 1500 rpm for 5 minutes and the haemoglobin released into the supernatant was estimated by measuring the optical density at 405 nm. Cell lysis was expressed as a percentage of maximal haemoglobin release.

Jurkat cells = assay: Lysis of Jurkat cells by RBL granule extracts, 4 hour 51Cr release; settings: EGTA 2 mM
Method: WT-Pfp, P5-Pfp or P6-Pfp was isolated from the RBL granules by nitrogen caviatation and percoll density fractionation of the cellular contents as described by Davis et al (J Immunol Methods. 2003, 276(1-2):59-68). RBL cells (1×10^9) were washed three times in PBS, then resuspended at 1×10^8/ml in relaxation buffer (100 mM KCL, 3.5 mM MgCl2, 1 mM PIPES pH 6.8, 1.25 mM EGTA) and lysed in a nitrogen cavitation apparatus at 450 psi for 20 minutes at 4° C. on a rotating platform. The cell lysate was collected following sudden decompression, and the nuclei removed by centrifugation at 2000 rpm for 10 minutes at 4° C. The nuclei were washed twice with 1 ml relaxation buffer and the supernatants were pooled with the supernatant from the first wash. The pooled supernatants were centrifuged at 2000 rpm for a further 5 minutes to remove all cell debris. A 40% percoll density gradient was then formed by mixing 8 ml of adjusted percoll (45 ml percoll and 5 ml 10× relaxation buffer) with 12 ml of relaxation buffer, containing lmM ATP. 5 ml of cell lysate was loaded onto each gradient and centrifuged at 20,000 rpm for 35 minutes at 4° C. The cytotoxic granules, which migrate to the dense region of the gradient, were collected by harvesting 1 ml fractions from the bottom of the gradient using a long spinal tap needle attached to a syringe. The fractions were concentrated (individually) in an ultracentrifuge (Beckman Coulter) at 100,000 rpm for 3 hours at 4° C. and the granules obtained from the surface of the pelleted percoll by washing them into a small volume of resuspension buffer. To release the perforin, the granules were disrupted by resuspension in an equal volume of 2 M NaCl and three cycles of freezing in liquid nitrogen and thawing in a 37° C. waterbath.
Jurkat cells were labelled with 50 μCi ^51Chromium in 100 ul unsupplemented RPMI medium at 37° C. for 1 hour. ^51Cr-labelled cells were then resuspended in HBSS buffer (CSL Ltd.) with or without 2 mM EGTA. […] Granule fraction #8 (determined by western analysis to contain the highest perforin content) was serially diluted in HE buffer and incubated with target cells in a final volume of 200 μl, for 4 hours at 37° C. The spontaneous release of ^51Cr was determined by incubating the target cells with HE buffer alone and the maximum release was determined by adding HCl to a final concentration of 1 M. After 4 hours, the plates were centrifuged at 1500 rpm, 100 μl of supernatant was harvested and the released radioactivity was measured in a Wizard 1470 Gamma counter. Cytotoxicity was expressed as a percentage specific ^51Cr release after subtracting spontaneous release. The percent specific lysis was calculated as follows: 100× [(experimental release—spontaneous release)/(maximum release—spontaneous release)].

Jurkat T cell targets = assay: 4-h 51Cr release assay, perforin-transfected RBL cells on Jurkat T cell targets; settings: Jurkat targets, 4 h 51Cr release
Source text: Mature human and mouse perforin each have 534 amino acids. However, the leader sequence of human perforin is one amino acid longer than that of the mouse. […] Importantly, arginine 225 is a nonconserved residue with threonine being present in mouse perforin. […] The mutations were introduced using the Transformer (Stratagene) site-directed mutagenesis system according to the manufacturer's instructions. The resultant and the WT cDNA was cloned into the pIRES2-EGFP expression vector (CLONTECH Laboratories, Inc.). Fcε receptor-expressing RBL cells were grown to near confluence in 175-cm^2 flasks, harvested, washed twice, and resuspended at 10^7 cells/ml in serum-free DMEM. 200 μL of the cell suspension was mixed with 20 μg pIRES2-EGFP containing the WT or mutated perforin cDNA or vector DNA alone, incubated at room temperature for 10 min, and electroporated in 4-mm electroporation cuveftes and Bio-Rad Laboratories pulser at 500 μF and […]. After 10 min at RT, the cells were transferred into complete DMEM. Cells were harvested 18-20 h later, and GFP-expressing cells were sorted by flow cytometry (FACStar; Beckton Dickinson).
The cytotoxic capacity of RBL cells was analyzed using Jurkat T cell targets in a 4-h ^51Cr release assay, as detailed above. Briefly, the surface of ^51Cr-labeled Jurkat cells was derivatized with a 1 mM solution of trinitrobenzosulfonic acid in PBS, (pH 7.4) for 15 min at 37° C. and washed with unsupplemented DMEM three times. The transfected RBL cells were harvested and incubated with antitrinitrophenol IgE mAb (2 μg/ml) at 37° C. for 15 min and washed with unsupplemented DMEM three times. RBL and Jurkat cells were coincubated at various effector to target (E:T) ratios at 37° C. in 200 μL serum-free DMEM supplemented with 1% BSA for 4 h in 96-well plates. The supernatant was then harvested and the released ^51Cr measured in a gamma counter. The total ^51Cr content of Jurkat cells was estimated using 5% Triton X-100-lysed cells. The percentage-specific chromium release was calculated as 100× ([experimental release[…]]/[total release—spontaneous release])) and is shown as mean±SD.
The cytotoxicity of RBL cells was analysed using Jurkat T cells as targets in a 4-hour ^51Cr release assay as described in Example 3 above. Cell lysates from transiently-transfected RBL cells were resolved on a 10% SDS-PAGE (Tris-Glycine) gel, which was then analysed for perforin or tubulin expression by immunoblotting with P1-8 anti-perforin, or anti-tubulin antibodies, followed by the secondary HRP-linked anti-rat or anti-mouse immunoglobulin. The signal was detected by chemiluminescence (Amersham-Pharmacia).

Molecule	inhibition of WT-Pfp granule hemolysis of sRBC [1]	inhibition of WT-Pfp granule lysis of Jurkat cells (Jurkat cells)	cytotoxic function of RBL cells expressing perforin variant vs WT (Jurkat T cell targets)
O=C(O)CN(CCOCCOCCN(CC(=O)O)CC(=O)O)CC(=O)O [EGTA, Ethyleneglycotetraacetic acid, reference compound]	inhibited by EGTA	completely inhibited	–
B1	–	–	indistinguishable from that of the WT protein
